Data reported in US20260274851A1, “MODULATORS OF TRPML, THEIR COMPOSITIONS AND METHODS OF USE” (Caraway Therapeutics, Inc., priority 2023, published 2026).

Assays:
[1] = biological target: Human TRPML1 (Homo sapiens, UniProt Q9GZU1); assay: Fluorescent TRPML1 assay (Fluo4 calcium fluorescence, HEK-293 Trex cells); assay type: cell-based; settings: HEK-293 Trex cells expressing surface-directed hTRPML1, Fluo4 fluorescence
Method: (§1) HEK-293 Trex cells were stably transfected with a construct consisting of the human coding sequence for TRPML1 cloned into the tet-inducible plasmid pCDNA5 T/O. Mutations were introduced into the TRPML1 sequence to facilitate expression on the cell surface (Silvia Vergarajauregui. Rosa Puertollano Traffic. 2006 March: 7(3): 337-353). Briefly, the cells are cultured in 150 mm round tissue culture dishes containing 20 mL of media. The day before the assay the cells are rinsed with DPBS—Ca —Mg and then treated briefly with Trypsin-EDTA. The Trypsin-EDTA is diluted with growth media, and cells are counted. 38×10^6 cells are re-plated into 150 mm round tissue culture dishes in media containing 0.5 g/mL doxycycline to induce expression of hTRPML1.
(§2) The day of the experiment cells are lifted from the plates as above and collected by centrifugation. The cells are then suspended in dye loading buffer consisting of Ringer's solution supplemented with 0.1% Pluronic Acid and 1 micromolar Fluo4-AM dye. Cells are loaded for ~60 minutes in the dark with occasional mixing. The cells are collected by centrifugation, the loading media aspirated, and the cells resuspended in 25 mL Ringer's solution and incubated ~60 minutes in the dark. The cells are again collected by centrifugation, rinsed in Ringer's Solution and resuspended to 0.2×10^6 cells/mL in modified Ringer's solution containing 10 mM calcium.
(§3) Compounds are dissolved to a concentration of 10 millimolar with DMSO. Compound plates are created by dispensing compounds into 384 well black wall clear bottom plates (Greiner 781091). Positive and negative controls are included on each plate. Typically, different amounts of each compound are tested ranging from 100 nanoMoles (20 micromolar final concentration) decreasing in half-log steps to 31 picoMoles (6 nanomolar final concentration). Each concentration is typically tested in triplicate.
(§4) 50 microliters of dye-loaded cells are dispensed into each well of the compound assay plate created above. The fluorescence in each well is then determined with an excitation wavelength of 480 nm and an emission wavelength of 540 nm using either a Molecular Devices SpectraMax multimode plate reader or a Hamamatsu FDSS/uCell plate imager.
(§5) The resulting fluorescence for each well is exported as an ascii file and loaded into our LIMS for analysis. The percent activity of each compound at each concentration is determined by comparison to the positive and negative control wells included in each plate.
(§6) EC50 values were calculated using a non-linear regression of Prism. In the table, “A” indicates an EC50 of less than 100 nM, “B” indicates an EC50 range from 100 nM to 500 nM; “C” indicates an EC50 range from 500 nM to 2 μM; and “D” indicates an EC50 greater than 2 μM.

[2] = biological target: T1, Human TRPML3 (Homo sapiens, UniProt Q8TDD5); assay: Fluorescent TRPML3 assay (as for TRPML1); assay type: cell-based; settings: as TRPML1 assay with TRPML3 subtype
T1 construct: expressed in transfected cells
T1 sequence (Q8TDD5 1-553): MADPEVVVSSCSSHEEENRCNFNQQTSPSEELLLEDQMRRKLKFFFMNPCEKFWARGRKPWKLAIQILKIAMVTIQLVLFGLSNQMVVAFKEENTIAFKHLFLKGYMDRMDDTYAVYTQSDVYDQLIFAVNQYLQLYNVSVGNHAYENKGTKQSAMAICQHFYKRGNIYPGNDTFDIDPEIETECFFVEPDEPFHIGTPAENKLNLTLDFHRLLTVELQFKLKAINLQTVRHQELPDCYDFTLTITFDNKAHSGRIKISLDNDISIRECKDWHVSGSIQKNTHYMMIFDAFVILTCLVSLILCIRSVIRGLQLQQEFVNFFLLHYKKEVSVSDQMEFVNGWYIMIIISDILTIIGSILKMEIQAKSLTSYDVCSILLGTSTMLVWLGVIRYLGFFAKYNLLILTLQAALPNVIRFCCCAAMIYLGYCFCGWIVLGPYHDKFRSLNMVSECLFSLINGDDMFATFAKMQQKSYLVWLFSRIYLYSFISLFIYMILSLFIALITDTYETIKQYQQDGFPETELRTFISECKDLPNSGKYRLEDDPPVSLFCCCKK
Method: as §1, §2, §3, §4, §5
Assays for TRPML2 and TRPML3 were performed as above for TRPML1, by substituting the appropriate TRPML2 or TRPML3 subtype for the TRPML1.
as §6

[3] = biological target: T2, Human TRPML2 (Homo sapiens, UniProt Q8IZK6); assay: Fluorescent TRPML2 assay (as for TRPML1); assay type: cell-based; settings: as TRPML1 assay with TRPML2 subtype
T2 construct: expressed in transfected cells
T2 sequence (Q8IZK6 1-566): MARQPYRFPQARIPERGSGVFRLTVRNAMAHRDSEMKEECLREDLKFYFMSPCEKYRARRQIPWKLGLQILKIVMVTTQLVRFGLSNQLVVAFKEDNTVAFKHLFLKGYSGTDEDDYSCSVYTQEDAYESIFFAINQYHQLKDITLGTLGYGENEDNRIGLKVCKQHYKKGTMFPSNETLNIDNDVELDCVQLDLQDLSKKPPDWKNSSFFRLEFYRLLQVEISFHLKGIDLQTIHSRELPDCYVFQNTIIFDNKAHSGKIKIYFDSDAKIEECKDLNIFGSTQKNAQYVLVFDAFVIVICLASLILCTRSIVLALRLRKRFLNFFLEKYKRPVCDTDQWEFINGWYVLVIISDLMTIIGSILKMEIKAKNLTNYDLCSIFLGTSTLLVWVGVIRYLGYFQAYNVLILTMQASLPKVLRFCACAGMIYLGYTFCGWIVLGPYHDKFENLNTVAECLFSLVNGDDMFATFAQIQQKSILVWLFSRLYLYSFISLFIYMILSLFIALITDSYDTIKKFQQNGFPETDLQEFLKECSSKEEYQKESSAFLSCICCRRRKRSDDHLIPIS
Method: as §1, with “38×10^6 cells are re-plated into 150 mm round tissue culture dishes in media containing 0.5 g/mL doxycycline to induce expression of hTRPML1.” left out
as §4
The resulting fluorescence for each well is exported as an ascii file and loaded into our LIMS for analysis. The percent activity of each compound at each concentration is determined by comparison to the positive and negative control wells included in each plate. […]
EC50 values were calculated using a non-linear regression of Prism. […]

[4] = tested on: TRPMLs; settings: high concentrations needed; background statement; cited from earlier work

Sequence of Human TRPML1 (Q9GZU1 whole entry L15A/L16A/L577A/L578A, form open): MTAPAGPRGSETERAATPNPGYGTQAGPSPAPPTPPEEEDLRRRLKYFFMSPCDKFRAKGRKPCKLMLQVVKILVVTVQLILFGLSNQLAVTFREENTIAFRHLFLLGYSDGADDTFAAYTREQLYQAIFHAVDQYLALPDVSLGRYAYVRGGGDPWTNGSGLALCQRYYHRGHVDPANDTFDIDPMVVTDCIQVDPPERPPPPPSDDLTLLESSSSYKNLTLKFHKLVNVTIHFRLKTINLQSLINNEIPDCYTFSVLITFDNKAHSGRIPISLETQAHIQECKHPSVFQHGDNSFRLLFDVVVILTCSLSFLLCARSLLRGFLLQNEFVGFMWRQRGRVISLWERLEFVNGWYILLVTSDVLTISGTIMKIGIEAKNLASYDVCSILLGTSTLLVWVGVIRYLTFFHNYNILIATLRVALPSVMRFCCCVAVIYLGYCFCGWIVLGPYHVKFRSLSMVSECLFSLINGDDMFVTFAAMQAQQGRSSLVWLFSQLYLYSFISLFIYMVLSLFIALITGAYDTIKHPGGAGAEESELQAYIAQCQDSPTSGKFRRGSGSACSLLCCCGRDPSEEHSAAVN

SMILES	EC50 [1] [nM]	EC50 [2] [nM]	EC50 [3] [nM]	Concentration needed to effectively activate TRPMLs [4]
C[C@@H]1CN(c2ncnc3c2c(-c2ccccc2)cn3-c2cccc(C#N)c2)[C@@H](C)CN1C(=O)C(C)(C)O [Compound 101, 3-(4-((2S,5R)-4-(2-hydroxy-2-methylpropanoyl)-2,5-dimethylpiperazin-1-yl)-5-phenyl-7H-pyrrolo[2,3-d]pyrimidin-7-yl)benzonitrile]	100 to 500	> 2000		
COC(C)(C)C(=O)N1C[C@H](C)N(c2ncnc3c2c(-c2ccccc2F)cn3-c2cccc(F)c2)C[C@H]1C [Compound 103, 1-((2R,5S)-4-(5-(2-fluorophenyl)-7-(3-fluorophenyl)-7H-pyrrolo[2,3-d]pyrimidin-4-yl)-2,5-dimethylpiperazin-1-yl)-2-methoxy-2-methylpropan-1-one]	< 100	< 100	100 to 500	
C[C@@H]1CN(c2ncnc3c2c(-c2ccccc2F)cn3-c2cc(F)cc(F)c2)[C@@H](C)CN1C(=O)C(C)(C)O [Compound 104, 1-((2R,5S)-4-(7-(3,5-difluorophenyl)-5-(2-fluorophenyl)-7H-pyrrolo[2,3-d]pyrimidin-4-yl)-2,5-dimethylpiperazin-1-yl)-2-hydroxy-2-methylpropan-1-one]	500 to 2000	> 2000		
CC1CC(C)(C)N(C(=O)CN2C(=O)c3ccccc3C2=O)c2ccccc21 (stereo not drawn) [ML-SA1]				~ 10 μM

Continued, in another order:

EC50 [1] [nM]	EC50 [2] [nM]	EC50 [3] [nM]	SMILES	Concentration needed to effectively activate TRPMLs [4]
100 to 500	> 2000		C[C@@H]1CN(c2ncnc3c2c(-c2ccccc2F)cn3-c2cccc(C#N)c2)[C@@H](C)CN1C(=O)C(C)(C)O [Compound 102, 3-(5-(2-fluorophenyl)-4-((25,5R)-4-(2-hydroxy-2-methylpropanoyl)-2,5-dimethylpiperazin-1-yl)-7H-pyrrolo[2,3-d]pyrimidin-7-yl)benzonitrile]	
100 to 500	500 to 2000		C[C@@H]1CN(c2ncnc3c2c(-c2ccccc2F)cn3-c2cccc(Cl)c2)[C@@H](C)CN1C(=O)C(C)(C)O [Compound 105, 1-((2R,5S)-4-(7-(3-chlorophenyl)-5-(2-fluorophenyl)-7H-pyrrolo[2,3-d]pyrimidin-4-yl)-2,5-dimethylpiperazin-1-yl)-2-hydroxy-2-methylpropan-1-one]	
